Reference: US7452913B2, “Polymorphs of pyrrole substituted 2-indolinone protein kinase inhibitors” (Pharmacia & Upjohn Company, priority 2003, dated 2008)
Values after ≈ are worked out from the molar mass of the structure shown. Like-named read-outs stand apart in the source and are kept apart here. Marks after values point to notes of the source that are not given here.

Experiments:
Assay type in all cases: physicochemical
pKa = test: pKa
[1] = Estimation of the solubility of a polymorph in various solvents; details: thermodynamic from solid
Description: Estimation of the Solubility of a Polymorph in Various Solvents.
Approximately 1.5 mg of the polymorph, was transferred to 10 mL glass vials (tared) and was weighed (accurate to 0.1 mg). Solvents were added to the vials (one solvent each vial) in a step-wise fashion. After each addition, the vial was capped and shaken. The dissolution of solid was visually observed. If no obvious dissolution was observed, more solvent was added immediately. If dissolution was apparent, the vial was left on the bench for at least 30 minutes before the next addition of solvent. This step was repeated until no crystals were visible against a black and a white background. The solubility was then bracketed by dividing the weight by the final volume and the volume before the last addition. If a solid remained after the addition of 10 mL solvent, the solubility was expressed as less than the weight divided by the final volume. If the solid was completely dissolved after the first addition of solvent, the solubility was expressed as greater than the weight divided by the solvent volume. The solubility values were expressed as mg/mL. All experiments were conducted at room temperature.
The estimated solubilities of 5-[5-fluoro-2-oxo-1,2-dihydroindol-(3Z)-ylidenmethyl]-2,4-dimethyl-1H-pyrrole-3-carboxylic acid (2-pyrrolidin-1-ylethyl)-amide in various solvents are presented in Table A. The experiments were carried out using polymorph I at room temperature. The solubilities may be divided into three groups.

[2] = Equilibrium solution pH of non-buffered aqueous medium after adding the compound; details: for Equilibrium solution pH: non-buffered aqueous medium, ambient temperature
Description: Determination of the pH—Solubility Profile of Polymorphs.
About 3 mL aqueous solutions of various concentrations of either HCl or NaOH, providing a pH from 1-13, were transferred to a 10 ml glass vial. A sufficient amount of the polymorph was added. The vials were wrapped with aluminum foil and manually shaken. They were allowed to sit in the fume hood overnight prior to any further treatment.
As expected, the equilibrium solubility of this compound is higher at lower solution pH (Table A). However, the dissolution of a particle in a dissolution medium depends on the pH in the diffusion layer. The pH value of the diffusion layer in intimate contact with the solid (pHh=0) may be obtained from equilibrium pH of the solution, measured by a pH meter. Results are presented in Table B. When the initial pH is higher than 10, the solubility of 5-[5-fluoro-2-oxo-1,2-dihydroindol-(3Z)-ylidenmethyl]-2,4-dimethyl-1 H-pyrrole-3-carboxylic acid (2-pyrrolidin-1-ylethyl)-amide is very low. Therefore, the pH of the solution at equilibrium is almost not changed. On the other hand, if the initial pH<10, more 5-[5-fluoro-2-oxo-1,2-dihydroindol-(3Z)-ylidenmethyl]-2,4-dimethyl-1H-pyrrole-3-carboxylic acid (2-pyrrolidin-1-ylethyl)-amide goes into solution and the equilibrium solution pH is higher than the initial pH (Table B).

[3] = Rotating disc intrinsic dissolution rate (IDR) determination; details: for Color change of pellet side exposed to dissolution medium (solid-state conversion): 0.05M KCl, pH 2 buffer, original pellet yellow; for IDR (n = 3): pH = 2 buffer (0.01 N HCl and 0.05 M KCl) at 23° C.
Description: Rotating Disc Intrinsic Dissolution Rate (IDR) Determination. The IDR was measured using a fiber optic UV automated dissolution system. The dissolution process was monitored in some instances continuously at 426.2 nm using the fiber optic probe with 10 data points taken per minute. To prepare the compressed disc for the experiment, the powders were compressed in a stainless steel (SS) die, (1¼″ dia×1″, ID 3/16″) using a high speed steel (HSS) punch (diameter 3/16″ and length 3½″). The HSS punch was inserted into the die to a distance of about ¾″, leaving about ¼″ for placement of about 10 mg of the drug into the die cavity. A SS base plate (diameter ¼″) was placed to cover the cavity. The entire assembly was then secured by a 2-bolt holder. A Carver press was used to compress the powder at to ˜1,000 lbs (˜37,000 psi) for 3 minutes. The die and holder was removed from the Carver press and the punch was pulled back a little to allow the pellet to relax/expand. The die was then tightly attached on the HSS punch by a set-screw. The entire punch and die assembly containing the drug pellet with one face of the drug pellet exposed was removed as a unit from the holder and was attached to an electric motor. The die was rotated at 300 rpm and was lowered into the dissolution medium 3 min after the initiation of the data collection program. The dissolution medium was degassed and was contained in a 500 mL water jacketed beaker (Pyrex, No.1000). The data collect during the first 3 min provided a baseline value for each dissolution experiment. The dissolution medium consisted of pH=2 solution (0.01 N HCl and 0.05 M KCl). The die was positioned such that the drug compact was about 2.5″ from the bottom of the 500 mL dissolution vessel and about the same distance from the liquid surface. The intrinsic dissolution profile was plotted using Microsoft Excel and the intrinsic dissolution rate was calculated automatically by the program according to equation (1). The volume of dissolution medium was 300 mL. The surface area of the pellet exposed to dissolution medium was 0.177 cm^2. The time period for a dissolution run was usually 15 min but was varied as needed.

[4] = Suspension of polymorphs in pH 2 dissolution medium (HCl salt formation test); details: for Color change of suspended particles: at least 15 minutes after suspension; for Appearance of suspension: one day after preparation
Source text: To further test the HCl salt formation hypothesis. Both polymorph I and II were suspended in the above dissolution medium. […] It is also possible that compaction prior to the IDR experiment modify the crystals of polymorph I and render it the ability of rapid conversion. The XRD pattern of polymorph I pellets compressed at various pressures show some degree of amorphous content, which may be connected to its rapid salt formation during the IDR experiment.

[5] = Slurry conversion (suspension crystallization), resulting solid identified by PXRD; details: room temperature; for Resulting solid by PXRD: stirred 2 weeks
Description: To determine the relative thermodynamic stability relationship between two polymorphs, a slurry conversion experiment was also studied at room temperature using PXRD.
Polymorph I, 20 mg, was suspended in various solvents alone with trace amount of polymorph II seeding crystals in 10 mL glass vials. The suspensions were stirred by magnetic stirring bars for 2 weeks before the solids were filtered and analyzed by PXRD. […] Because the solubility in THF is higher than that in acetone (Table A), low solubility is not the reason for the slow conversion kinetics.

Compound: Cc1[nH]c(/C=C2\C(=O)Nc3ccc(F)cc32)c(C)c1C(=O)NCCN1CCCC1 [5-[5-fluoro-2-oxo-1,2-dihydroindol-(3Z)-ylidenmethyl]-2,4-dimethyl-1H-pyrrole-3-carboxylic acid (2-pyrrolidin-1-ylethyl)-amide]
- pKa (pKa): 8.5
- solubility ([1]; DMF and pH<=2 water (one solvent per vial), organic solvent or mixture, DMSO, DMF and pH<=2 water, polymorph I, room temperature, read-out: Solubility (Group III solvents)): > 1000 µg/mL
- solubility ([1]; dioxane and THF (one solvent per vial), organic solvent or mixture, methanol, ethanol, dioxane and THF, polymorph I, room temperature, read-out: Solubility (Group II solvents)): 100 to 400 µg/mL (≈ 252 to 1010 µM)
- solubility ([1]; organic solvent or mixture, isopropyl alcohol, CH2Cl2, ethyl acetate, acetonitrile, acetone, chloroform, toluene, hexane and pH>6 water, polymorph I, room temperature, read-out: Solubility (Group I solvents)): < 300 µg/mL
- pH of the diffusion layer in contact with the solid (pHh=0) ([2]; bulk dissolution medium pH as low as 1.4): > 5
- Solubility at initial pH higher than 10 ([2]; initial pH higher than 10, aqueous): very low
- Equilibrium solution pH ([2]; initial solution pH 1.43): 5.36
- Equilibrium solution pH ([2]; initial solution pH 2.19): 5.20
- Equilibrium solution pH ([2]; initial solution pH 3.22): 6.98
- Equilibrium solution pH ([2]; initial solution pH 5.47): 8.13
- Equilibrium solution pH ([2]; initial solution pH 6.73): 8.31
- Equilibrium solution pH ([2]; initial solution pH 7.24): 8.49
- Equilibrium solution pH ([2]; initial solution pH 7.61): 8.87
- Equilibrium solution pH ([2]; initial solution pH 10.07): 9.86
- Equilibrium solution pH ([2]; initial solution pH 11.53): 11.61
- Equilibrium solution pH ([2]; initial solution pH 12.50): 12.52
- Equilibrium solution pH ([2]; initial solution pH 13.20): 13.18

Compound: Cc1[nH]c(/C=C2\C(=O)Nc3ccc(F)cc32)c(C)c1C(=O)NCCN1CCCC1 [polymorph I, 5-[5-fluoro-2-oxo-1,2-dihydroindol-(3Z)-ylidenmethyl]-2,4-dimethyl-1H-pyrrole-3-carboxylic acid (2-pyrrolidin-1-ylethyl)-amide]
- Color change of pellet side exposed to dissolution medium (solid-state conversion) [3]: orange-red
- IDR (n = 3) [3]: 1.08 ± 0.09^c mg/min/cm^2
- Color change of suspended particles [4]: no change of color
- Appearance of suspension [4]: orange-red needle-shaped crystals
- Resulting solid by PXRD ([5]; Acetone suspension): converts to polymorph II
- Resulting solid by PXRD ([5]; Methanol suspension): converts to polymorph II
- Resulting solid by PXRD ([5]; THF suspension): appears stable
- solubility ([1]; aqueous buffer, Water (pH = 2), 23° C., read-out: Solubility): 3110 µg/mL (≈ 7840 µM)
- solubility ([1]; aqueous buffer, Water (pH = 6), 23° C., read-out: Solubility): 5 µg/mL (≈ 12.6 µM)
- solubility ([1]; organic solvent or mixture, Acetone, 23° C., read-out: Solubility): < 160 µg/mL
- solubility ([1]; organic solvent or mixture, Acetonitrile, 23° C., read-out: Solubility): < 80 µg/mL
- solubility ([1]; organic solvent or mixture, CH2Cl2, 23° C., read-out: Solubility): < 120 µg/mL
- solubility ([1]; organic solvent or mixture, Chloroform, 23° C., read-out: Solubility): < 110 µg/mL
- solubility ([1]; organic solvent or mixture, DMF, 23° C., read-out: Solubility): > 1500 µg/mL
- solubility ([1]; organic solvent or mixture, DMSO, 23° C., read-out: Solubility): 1500 to 3000 µg/mL (≈ 3780 to 7570 µM)
- solubility ([1]; organic solvent or mixture, Dioxane, 23° C., read-out: Solubility): 180 to 200 µg/mL (≈ 454 to 504 µM)
- solubility ([1]; organic solvent or mixture, Ethyl acetate, 23° C., read-out: Solubility): < 280 µg/mL
- solubility ([1]; organic solvent or mixture, Hexane, 23° C., read-out: Solubility): < 130 µg/mL
- solubility ([1]; organic solvent or mixture, Isopropanol, 23° C., read-out: Solubility): < 140 µg/mL
- solubility ([1]; organic solvent or mixture, PEG 400, 23° C., read-out: Solubility): 300 to 430 µg/mL (≈ 757 to 1080 µM)
- solubility ([1]; organic solvent or mixture, THF, 23° C., read-out: Solubility): 320 to 400 µg/mL (≈ 807 to 1010 µM)
- solubility ([1]; organic solvent or mixture, Toluene, 23° C., read-out: Solubility): < 130 µg/mL
- solubility ([1]; organic solvent or mixture, ethanol, 23° C., read-out: Solubility): 170 to 190 µg/mL (≈ 429 to 479 µM)
- solubility ([1]; organic solvent or mixture, methanol, 23° C., read-out: Solubility): 210 to 310 µg/mL (≈ 530 to 782 µM)

Compound: Cc1[nH]c(/C=C2\C(=O)Nc3ccc(F)cc32)c(C)c1C(=O)NCCN1CCCC1 [polymorph II, 5-[5-fluoro-2-oxo-1,2-dihydroindol-(3Z)-ylidenmethyl]-2,4-dimethyl-1H-pyrrole-3-carboxylic acid (2-pyrrolidin-1-ylethyl)-amide]
- Color change of pellet side exposed to dissolution medium (solid-state conversion) [3]: No obvious color change
- IDR of polymorph II relative to apparent IDR of polymorph I ([3]; pH 2 buffer at 23° C.): about three times
- IDR (n = 3) [3]: 3.54 ± 0.15 mg/min/cm^2
- Color change of suspended particles [4]: no change of color
- Appearance of suspension [4]: orange-red needle-shaped crystals
- Relative thermodynamic stability of the polymorphs [5]: thermodynamically more stable than polymorph I
